Test results published in patent publication US8486996B2, “Aroylfuranes and aroylthiophenes” (Basilea Pharmaceutica AG, priority 2006, dated 2013).
Like-named read-outs stand apart in the source and are kept apart here.

Columns and labels:
Type in all cases: cell-based
[1] = Hoechst 33342 nuclear staining (48 h read-out)
In short: (§1)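 Adherent cells pre-spread 24 h before dosing, suspension cells dosed at seeding; compounds at 0.001 μM-10 μM final, 48 h at culture conditions. Hoechst 33342 (2-5 μg/ml) added for 30 min, then fluorescence microscopy scoring of apoptotic nuclear fraction and apoptosis-specific morphology, reported as scores A-D.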

[2] = tested on: tumor cells; test: Hoechst 33342 nuclear staining (48 h read-out)
In short: as §1

[3] = Mitochondrial membrane potential, JC-1 (read-out 48 h); details: PBL, JC-1, 48 h
In short: (§2)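 Tumor cells were treated with test compounds (adherent cells after 24 h of attachment, suspension cells immediately), medium holding up to 5% DMSO. After 48 h, JC-1 (2-5 μg/ml in added medium) was applied for 30 min. Fluorescence microscopy (FITC/TRITC filters) scored the fraction of cells with dissipated mitochondrial membrane potential as categories A-D.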

[4] = tested on: tumor cells; test: as above; details: JC-1, 48 h
In short: as §2

[5] = MTS proliferation assay (72 h read-out); details: MRC5 cells
In short: (§3)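 Tumour cells (1.5×10^3–10^4 per well) were seeded 24 h before compound addition, then exposed to 0.001–10 μM final compound for 72 h under culture conditions. MTS reagent was added for a further 3 h, absorbance was read at 492 nm, and results were binned into scores A–D.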

[6] = tested on: tumor cells; test: MTS proliferation assay (72 h read-out)
In short: as §3

[7] = MRC5 cells, read-out: Hoechst 33342 nuclear staining EC50, MRC5
[8] = PBL, read-out: Hoechst 33342 nuclear staining EC50, PBL
[9] = HeLa cells, read-out: Hoechst 33342 nuclear staining EC50, HeLa
[10] = Jily cells, read-out: Hoechst 33342 nuclear staining EC50, Jily
[11] = Jurkat cells, read-out: Hoechst 33342 nuclear staining EC50, Jurkat
[12] = HeLa cells, read-out: Mitochondrial membrane potential (read-out 48 h) HeLa
[13] = Jily cells, read-out: Mitochondrial membrane potential (read-out 48 h) Jily
[14] = Jurkat cells, read-out: Mitochondrial membrane potential (read-out 48 h) Jurkat
[15] = MCF7 cells, read-out: Mitochondrial membrane potential (read-out 48 h) MCF7
[16] = HT1080 cells, read-out: MTS proliferation assay IC50, HT1080
[17] = HeLa cells, read-out: MTS proliferation assay IC50, HeLa
[18] = Jily cells, read-out: MTS proliferation assay IC50, Jily
[19] = Jurkat cells, read-out: MTS proliferation assay IC50, Jurkat

EC50 [1, 8] [nM]	EC50 [2, 9] [nM]	EC50 [2, 10] [nM]	EC50 [2, 11] [nM]	EC50 [3] [nM]	EC50 [4, 12] [nM]	EC50 [4, 13] [nM]	EC50 [4, 14] [nM]	EC50 [4, 15] [nM]	IC50 [6, 16] [nM]	IC50 [6, 17] [nM]	IC50 [6, 18] [nM]	IC50 [6, 19] [nM]	SMILES	EC50 [1, 7] [nM]	IC50 [5] [nM]
> 1000	100 to 1000	100 to 1000	100 to 1000	> 1000	100 to 1000	100 to 1000	100 to 1000	100 to 1000	100 to 1000	100 to 1000	10 to 100	10 to 100	COc1ccc2oc(C(=O)c3cccnc3N3CCCCC3C)cc2c1 (stereo not drawn) [Example 89]	100 to 1000	100 to 1000
> 1000	> 1000	> 1000	> 1000	> 1000	> 1000	> 1000	> 1000	> 1000	> 1000	> 1000	> 1000	> 1000	COc1ccc2oc(C(=O)c3cccnc3-n3ccnc3)cc2c1 [Example 90]	> 1000	> 1000
> 1000	100 to 1000	100 to 1000	100 to 1000	> 1000	10 to 100	10 to 100	10 to 100	10 to 100	< 10	10 to 100	< 10	< 10	COc1ccc2oc(C(=O)c3cccnc3N3CCCCC3)cc2c1 [Example 91]	100 to 1000	< 10
> 1000	> 1000	> 1000	> 1000	> 1000	10 to 100	10 to 100	10 to 100	10 to 100	> 1000	> 1000	> 1000	> 1000	COc1ccc2oc(C(=O)c3cccnc3N3CCCCC3)cc2c1 [Example 92]	> 1000	> 1000
> 1000	10 to 100	10 to 100	10 to 100	> 1000	10 to 100	100 to 1000	10 to 100	100 to 1000	10 to 100	10 to 100	10 to 100	100 to 1000	Nc1c(C(=O)c2cc(F)ccc2N2CCOCC2)oc2ccc(Cl)cc12 [Example 93]	10 to 100	10 to 100
> 1000	> 1000	> 1000	100 to 1000	> 1000	> 1000	100 to 1000	100 to 1000	> 1000	100 to 1000	100 to 1000	100 to 1000	100 to 1000	COc1ccc2oc(C(=O)c3cc(F)ccc3N3CCN(C)CC3)cc2c1 [Example 94]	> 1000	100 to 1000
> 1000	> 1000	> 1000	> 1000	> 1000	> 1000	> 1000	> 1000	> 1000	100 to 1000	> 1000	100 to 1000	100 to 1000	COc1ccc2oc(C(=O)c3cc(F)ccc3N3CCCCC3C)cc2c1 (stereo not drawn) [Example 97]	> 1000	100 to 1000
> 1000	100 to 1000	100 to 1000	100 to 1000	> 1000	100 to 1000	100 to 1000	100 to 1000	100 to 1000	100 to 1000	100 to 1000	10 to 100	10 to 100	COc1ccc2oc(C(=O)c3cc(F)ccc3N3CCCC(C)C3)cc2c1 (stereo not drawn) [Example 99]	> 1000	10 to 100
> 1000	100 to 1000	100 to 1000	10 to 100	> 1000	100 to 1000	10 to 100	10 to 100	100 to 1000	10 to 100	100 to 1000	10 to 100	10 to 100	Nc1c(C(=O)c2cc(F)ccc2N2CCCCC2)oc2ccc(Cl)cc12 [Example 100]	100 to 1000	10 to 100
> 1000	100 to 1000	100 to 1000	10 to 100	> 1000	100 to 1000	10 to 100	10 to 100	100 to 1000	10 to 100	100 to 1000	100 to 1000	10 to 100	Nc1c(C(=O)c2cc(F)ccc2N2CCCCC2)oc2ccc(Cl)cc12 [Example 101]	100 to 1000	100 to 1000
> 1000	> 1000	> 1000	> 1000	> 1000	> 1000	> 1000	> 1000	> 1000	> 1000	> 1000	> 1000	100 to 1000	CN1CCN(c2ccc(F)cc2C(=O)c2oc3ccc(Cl)cc3c2N)CC1 [Example 102]	> 1000	> 1000
> 1000	10 to 100	10 to 100	10 to 100	> 1000	10 to 100	10 to 100	10 to 100	10 to 100	10 to 100	10 to 100	10 to 100	10 to 100	Nc1c(C(=O)c2cc(F)ccc2N2CC=CCC2)oc2ccc(Cl)cc12 [Example 103]	10 to 100	10 to 100
> 1000	100 to 1000	100 to 1000	100 to 1000	> 1000	100 to 1000	100 to 1000	100 to 1000	100 to 1000	100 to 1000	100 to 1000	100 to 1000	100 to 1000	CC1CCCN(c2ccc(F)cc2C(=O)c2oc3ccc(Cl)cc3c2N)C1 (stereo not drawn) [Example 104]	100 to 1000	100 to 1000
> 1000	> 1000	> 1000	> 1000	> 1000	> 1000	> 1000	> 1000	> 1000	> 1000	> 1000	> 1000	> 1000	COc1ccc2oc(C(=O)c3cc(F)ccc3-n3ccnc3)cc2c1 [Example 105]	> 1000	> 1000
> 1000	> 1000	> 1000	> 1000	> 1000	> 1000	> 1000	> 1000	> 1000	> 1000	> 1000	> 1000	> 1000	O=C(c1cc2cc(OCc3ccccc3)ccc2o1)c1cc(F)ccc1N1CCOCC1 [Example 106]	> 1000	> 1000
> 1000	100 to 1000	100 to 1000	100 to 1000	> 1000	100 to 1000	10 to 100	10 to 100	100 to 1000	10 to 100	10 to 100	10 to 100	10 to 100	O=C(c1cc2cc(O)ccc2o1)c1cc(F)ccc1N1CCOCC1 [Example 107]	100 to 1000	10 to 100
> 1000	10 to 100	10 to 100	10 to 100	> 1000	100 to 1000	10 to 100	10 to 100	100 to 1000	10 to 100	10 to 100	10 to 100	10 to 100	CCOc1ccc2oc(C(=O)c3cc(F)ccc3N3CCOCC3)cc2c1 [Example 108]	10 to 100	10 to 100
> 1000	> 1000	> 1000	> 1000	> 1000	> 1000	> 1000	> 1000	> 1000	> 1000	> 1000	> 1000	> 1000	O=C(c1cc2cc(OCc3ccccc3)ccc2o1)c1cc(F)ccc1N1CC=CCC1 [Example 109]	> 1000	> 1000
> 1000	> 1000	> 1000	> 1000	> 1000	> 1000	> 1000	> 1000	> 1000	> 1000	> 1000	> 1000	> 1000	O=C(c1cc2cc(OCc3ccccc3)ccc2o1)c1cc(F)ccc1N1CCCCC1 [Example 110]	> 1000	> 1000
